# Assay results from patent US8343957B2, “Therapeutic pyrazoloquinoline urea derivatives” (Dart Neuroscience (Cayman) Ltd., priority 2007, dated 2013).
# Molecular target: GABAA central benzodiazepine receptor
# Assay: Benzodiazepine Binding Assay
# Conditions: read-out: BZ binding Assay IC50; 1 nM (3H)-flunitrazepam, rat whole brain (except cerebellum) membranes, 60 minutes at 25° C.
row,Compound,IC50
1,"O=C(N1CCC(O)CC1)n1cc2c(=O)n(-c3ccccc3)nc-2c2ccccc21 [Compd 30, 5-(4-Hydroxypiperidine-1-carbonyl)-2-phenyl-2,5-dihydro-pyrazolo-(4,3-c)quinolin-3-one]",> 1000 nM
2,"O=C(N1CCOCC1)n1cc2c(=O)n(-c3ccccc3)nc-2c2ccccc21 [Compd 13, 5-(Morpholine-4-carbonyl)-2-phenyl-2,5-dihydro-pyrazolo-(4,3-c)quinolin-3-one]",> 1000 nM
3,"Cc1c2c(=O)n(-c3ccccc3)nc-2c2cc(F)c(F)cc2n1C(=O)N1CCN(C)CC1 [Compd 47, 5-(4-Methylpiperazine-1-carbonyl)-7,8-difluoro-4-methyl-2-phenyl-2,5-dihydro-pyrazolo-(4,3-c)quinolin-3-one]",> 1000 nM
4,"CC(C)N1CCN(C(=O)n2cc3c(=O)n(-c4ccccn4)nc-3c3cc(F)c(F)cc32)CC1 [Compd 53, 5-(4-Isopropylpiperazine-1-carbonyl)-7,8-difluoro-2-(2′-pyridyl)-2,5-dihydro-pyrazolo-[4,3-c]quinolin-3-one]",> 1000 nM
5,"COc1ccc2c(c1)c1nn(-c3ccccc3)c(=O)c-1cn2C(=O)N1CCN(C)CC1 [Compd 42, 8-Methoxy-5-(4-methylpiperazine-1-carbonyl)-2-phenyl-2,5-dihydro-pyrazolo-(4,3-c)quinolin-3-one]",< 1000 nM
6,"O=C(N1CCCCC1)n1cc2c(=O)n(-c3ccccc3)nc-2c2ccccc21 [Compd 12, 5-(Piperidine-1-carbonyl)-2-phenyl-2,5-dihydro-pyrazolo-(4,3-c)quinolin-3-one]",< 1000 nM
7,"Cc1ccc2c(c1)c1nn(-c3ccccc3)c(=O)c-1cn2C(=O)N1CCN(C(C)C)CC1 [Compd 25, 5-(4-Isopropylpiperazine-1-carbonyl)-8-methyl-2-phenyl-2,5-dihydro-pyrazolo-(4,3-c)quinolin-3-one]",< 1000 nM
8,"COc1ccc(-n2nc3c4cc(F)ccc4n(C(=O)N4CCN(C(C)C)CC4)cc-3c2=O)cc1 [Compd 39, 5-(4-Isopropylpiperazine-1-carbonyl)-8-fluoro-2-(4′-methoxyphenyl)-2,5-dihydro-pyrazolo-(4,3-c)quinolin-3-one]",< 1000 nM
9,"O=C(N1CCN(c2ccccc2)CC1)n1cc2c(=O)n(-c3ccccc3)nc-2c2cc(F)ccc21 [Compd 37, 5-(4-Phenylpiperazine-1-carbonyl)-8-fluoro-2-phenyl-2,5-dihydro-pyrazolo-(4,3-c)quinolin-3-one]",< 1000 nM
10,"CN1CCN(C(=O)n2cc3c(=O)n(-c4ccccc4)nc-3c3cc(C(F)(F)F)ccc32)CC1 [Compd 45, 5-(4-Methylpiperazine-1-carbonyl)-2-phenyl-8-trifluoromethyl-2,5-dihydro-pyrazolo[4,3-c]quinolin-3-one]",< 1000 nM
11,"CC(C)N1CCN(C(=O)n2cc3c(=O)n(-c4ccccc4)nc-3c3cc(F)c(F)cc32)CC1 [Compd 21, 5-(4-Isopropylpiperazine-1-carbonyl)-7,8-difluoro-2-phenyl-2,5-dihydro-pyrazolo-(4,3-c)quinolin-3-one]",< 1000 nM
12,"CC1CN(C(=O)n2cc3c(=O)n(-c4ccccc4)nc-3c3ccccc32)CC(C)N1 (stereo not shown) [Compd 11, 5-(3,5-Dimethylpiperazine-1-carbonyl)-2-phenyl-2,5-dihydro-pyrazolo-(4,3-c)quinolin-3-one]",< 1000 nM
13,"CC(C)N1CCN(C(=O)n2cc3c(=O)n(-c4ccccc4)nc-3c3cc(F)ccc32)CC1 [Compd 19, 5-(4-Isopropylpiperazine-1-carbonyl)-8-fluoro-2-phenyl-2,5-dihydro-pyrazolo-(4,3-c)quinolin-3-one]",< 1000 nM
14,"O=C(N1CCC(O)CC1)n1cc2c(=O)n(-c3ccccc3)nc-2c2cc(F)c(F)cc21 [Compd 51, 5-(4-Hydroxypiperidine-1-carbonyl)-2-phenyl-7,8-difluoro-2,5-dihydro-pyrazolo[4,3-c]quinolin-3-one]",> 1000 nM
15,"COc1ccc(-n2nc3c4ccccc4n(C(=O)N4CCN(C)CC4)cc-3c2=O)cc1 [Compd 18, 5-(4-Methylpiperazine-1-carbonyl)-2-(4′-methoxyphenyl)-2,5-dihydro-pyrazolo-(4,3-c)quinolin-3-one]",< 1000 nM
16,"Cc1c2c(=O)n(-c3ccccc3)nc-2c2ccccc2n1C(=O)N1CCN(C(C)C)CC1 [Compd 43, 5-(4-Isopropylpiperazine-1-carbonyl)-4-methyl-2-phenyl-2,5-dihydro-pyrazolo[4,3-c]quinolin-3-one]",< 1000 nM

# Next, values leading:
row,IC50,Compound
1,< 1000 nM,"COc1ccc2c(c1)c1nn(-c3ccccc3)c(=O)c-1cn2C(=O)N1CCN(C(C)C)CC1 [Compd 23, 5-(4-Isopropylpiperazine-1-carbonyl)-8-methoxy-2-phenyl-2,5-dihydro-pyrazolo-(4,3-c)quinolin-3-one]"
2,< 1000 nM,"Cc1ccc2c(c1)c1nn(-c3ccccc3)c(=O)c-1cn2C(=O)N1CCCN(C)CC1 [Compd 29, 5-(4-Methylperhydro[1,4]-diazepine-1-carbonyl)-8-methyl-2-phenyl-2,5-dihydro-pyrazolo-(4,3-c)quinolin-3-one]"
3,< 1000 nM,"Cc1ccc2c(c1)c1nn(-c3ccccc3)c(=O)c-1cn2C(=O)N1CCC(F)CC1 [Compd 28, 5-(4-Fluoropiperidine-1-carbonyl)-8-methyl-2-phenyl-2,5-dihydro-pyrazolo-(4,3-c)quinolin-3-one]"
4,< 1000 nM,"CN1CCN(C(=O)n2cc3c(=O)n(-c4ccccc4)nc-3c3cc(F)c(F)cc32)CC1 [Compd 22, 5-(4-Methylpiperazine-1-carbonyl)-7,8-difluoro-2-phenyl-2,5-dihydro-pyrazolo-(4,3-c)quinolin-3-one]"
5,< 1000 nM,"CN(C)C1CCN(C(=O)n2cc3c(=O)n(-c4ccccc4)nc-3c3ccccc32)CC1 [Compd 33, 5-(4-N,N-Dimethylaminopiperidine-1-carbonyl)-2-phenyl-2,5-dihydro-pyrazolo-(4,3-c)quinolin-3-one]"
6,< 1000 nM,"COc1ccc(-n2nc3c4ccccc4n(C(=O)N4CCN(C(C)C)CC4)cc-3c2=O)cc1 [Compd 17, 5-(4-Isopropylpiperazine-1-carbonyl)-2-(4′-methoxyphenyl)-2,5-dihydro-pyrazolo-(4,3-c)quinolin-3-one]"
7,< 1000 nM,"Cc1c2c(=O)n(-c3ccccc3)nc-2c2ccccc2n1C(=O)N1CCN(C)CC1 [Compd 44, 4-Methyl-5-(4-methylpiperazine-1-carbonyl)-2-phenyl-2,5-dihydro-pyrazolo[4,3-c]quinolin-3-one]"
8,< 1000 nM,"O=C(N1CCN(c2ccccc2)CC1)n1cc2c(=O)n(-c3ccccc3)nc-2c2ccccc21 [Compd 10, 5-(4-Phenylpiperazine-1-carbonyl)-2-phenyl-2,5-dihydro-pyrazolo-(4,3-c) quinolin-3-one]"
9,< 1000 nM,"Cc1cc2c(cc1F)c1nn(-c3ccccc3)c(=O)c-1cn2C(=O)N1CCN(C)CC1 [Compd 41, 8-Fluoro-7-methyl-5-(4-methylpiperazine-1-carbonyl)-2-phenyl-2,5-dihydro-pyrazolo-(4,3-c)quinolin-3-one]"
10,< 1000 nM,"CN1CCN(C(=O)n2cc3c(=O)n(-c4ccccc4F)nc-3c3ccccc32)CC1 [Compd 16, 5-(4-Methylpiperazine-1-carbonyl)-2-(2′-fluorophenyl)-2,5-dihydro-pyrazolo-(4,3-c)quinolin-3-one]"
11,< 1000 nM,"Cc1ccc2c(c1)c1nn(-c3ccccc3)c(=O)c-1cn2C(=O)N1CCN(C)CC1 [Compd 26, 5-(4-Methylpiperazine-1-carbonyl)-8-methyl-2-phenyl-2,5-dihydro-pyrazolo-(4,3-c)quinolin-3-one]"
12,< 1000 nM,"CN1CCN(C(=O)n2cc3c(=O)n(-c4ccsc4)nc-3c3cc(F)c(F)cc32)CC1 [Compd 49, 5-(4-Methylpiperazine-1-carbonyl)-2-(thiophen-3-yl)-7,8-difluoro-2,5-dihydro-pyrazolo[4,3-c]quinolin-3-one]"
13,< 1 nM,"CC(C)N1CCN(C(=O)n2cc3c(=O)n(-c4ccccc4)nc-3c3cc(C(F)(F)F)ccc32)CC1 [Compd 46, 5-(4-Isopropyl-piperazine-1-carbonyl)-2-phenyl-8-trifluoromethyl-2,5-dihydro-pyrazolo[4,3-c]quinolin-3-one]"
14,< 1000 nM,"CC1CCCN1C(=O)n1cc2c(=O)n(-c3ccccc3)nc-2c2ccccc21 (stereo not shown) [Compd 9, 5-(2-Methylpyrrolidine-1-carbonyl)-2-phenyl-2,5-dihydro-pyrazolo-(4,3-c) quinolin-3-one]"
15,< 1000 nM,"Cc1ccc2c(c1)c1nn(-c3ccccc3)c(=O)c-1cn2C(=O)N1CCC(O)CC1 [Compd 27, 5-(4-Hydroxypiperidine-1-carbonyl)-8-methyl-2-phenyl-2,5-dihydro-pyrazolo-(4,3-c)quinolin-3-one]"
16,< 1000 nM,"CN1CCN(C(=O)n2cc3c(=O)n(-c4ccccc4)nc-3c3cc(F)ccc32)CC1 [Compd 20, 5-(4-Methylpiperazine-1-carbonyl)-8-fluoro-2-phenyl-2,5-dihydro-pyrazolo-(4,3-c)quinolin-3-one]"
17,< 1000 nM,"COc1ccc(-n2nc3c4cc(F)c(F)cc4n(C(=O)N4CCN(C(C)C)CC4)cc-3c2=O)cc1 [Compd 38, 5-(4-Isopropylpiperazine-1-carbonyl)-7,8-difluoro-2-(4′-methoxyphenyl)-2,5-dihydro-pyrazolo-(4,3-c)quinolin-3-one]"
18,< 1000 nM,"CC(C)N1CCN(C(=O)n2cc3c(=O)n(-c4ccccc4F)nc-3c3ccccc32)CC1 [Compd 15, 5-(4-Isopropylpiperazine-1-carbonyl)-2-(2′-fluorophenyl)-2,5-dihydro-pyrazolo-(4,3-c)quinolin-3-one]"
19,< 1000 nM,"CN1CCCN(C(=O)n2cc3c(=O)n(-c4ccccc4)nc-3c3cc(F)c(F)cc32)CC1 [Compd 52, 5-(4-Methylperhydro[1,4]-diazepine-1-carbonyl)-7,8-difluoro-2-phenyl-2,5-dihydro-pyrazolo[4,3-c]quinolin-3-one]"
20,< 1000 nM,"CN1CCN(C(=O)n2cc3c(=O)n(-c4ccccc4)nc-3c3ccccc32)CC1 [Compd 36, 5-(4-Methylpiperazine-1-carbonyl)-2-phenyl-2,5-dihydro-pyrazolo-(4,3-c)quinolin-3-one]"
21,< 1000 nM,"CC(C)N1CCN(C(=O)n2cc3c(=O)n(-c4ccc(Cl)cc4)nc-3c3cc(F)ccc32)CC1 [Compd 35, 5-(4-Isopropylpiperazine-1-carbonyl)-8-fluoro-2-(4-chlorophenyl)-2,5-dihydro-pyrazolo-(4,3-c)quinolin-3-one]"
